For five molecules, Max % inhibition and IC50 results are on record in patent publication US20230089867A1, “CYCLIC PENTAMER COMPOUNDS AS PROPROTEIN CONVERTASE SUBTILISIN/KEXIN TYPE 9 (PCSK9) INHIBITORS FOR THE TREATMENT OF METABOLIC DISORDER” (Novartis AG, priority 2018, published 2023).

The IC50 is the midpoint of a concentration-inhibition curve.

Each structure is given as a SMILES string.

For this assay, the target named is human PCSK9 (Homo sapiens, UniProt Q8NBP7). Kind of assay: PCSK9 ligand binding TR-FRET assay (interference with binding of human PCSK9 to human LDLR). The note with it: for Max % inhibition: PCSK9 FRET assay, efficacy (Amax), 100% = 1 uM unlabeled human PCSK9, 0% = DMSO; for IC50: TR-FRET, human PCSK9 Alexa Fluor 647 / human LDLR extracellular domain-Europium Kryptate, read-out: PCSK9 FRET Assay IC50. The method in brief:
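Threefold compound dilutions were pre-incubated 30 min with PCSK9, after which 4 nM Europium Kryptate-tagged human LDLR ectodomain was added for a further 2 h.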
Background: In TR-FRET formats the signal depends on donor and acceptor labels being close together.

Chain of human PCSK9 (Q8NBP7 153-692): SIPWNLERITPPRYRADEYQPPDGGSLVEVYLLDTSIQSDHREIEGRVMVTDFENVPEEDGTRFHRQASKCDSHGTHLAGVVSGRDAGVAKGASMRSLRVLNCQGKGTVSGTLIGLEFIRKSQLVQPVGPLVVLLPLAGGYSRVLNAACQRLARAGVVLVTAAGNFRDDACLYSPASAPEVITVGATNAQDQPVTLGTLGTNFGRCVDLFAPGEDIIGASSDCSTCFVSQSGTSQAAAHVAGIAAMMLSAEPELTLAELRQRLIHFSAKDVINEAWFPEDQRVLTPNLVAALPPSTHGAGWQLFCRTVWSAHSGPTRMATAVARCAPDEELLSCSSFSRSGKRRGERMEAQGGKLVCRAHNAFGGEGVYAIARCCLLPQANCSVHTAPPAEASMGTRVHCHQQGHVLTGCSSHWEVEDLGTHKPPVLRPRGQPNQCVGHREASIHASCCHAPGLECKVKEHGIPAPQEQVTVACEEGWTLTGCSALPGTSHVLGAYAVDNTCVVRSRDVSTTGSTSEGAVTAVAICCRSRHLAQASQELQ
Chain of human PCSK9 (Q8NBP7 31-152 partner limits assumed): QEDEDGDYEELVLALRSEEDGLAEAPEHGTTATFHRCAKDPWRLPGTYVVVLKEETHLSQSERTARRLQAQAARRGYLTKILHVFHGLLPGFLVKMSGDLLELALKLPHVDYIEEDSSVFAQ

Regarding `COC[C@@H]1NC(=O)[C@H](C)N(Cc2ccc(Cl)cc2Oc2ccc(-c3cnc([C@H](C)N(C)C)n3C)cc2)C(=O)C[C@@H](Cc2ccccc2)C(=O)N(C)[C@H]2CCCC[C@@H]2NC(=O)C[C@H](Cc2ccc(Cl)cc2)N(C)C1=O` [Compound 241, (4S,7S,10S,14R,16aS,20aS)-14-benzyl-11-(4-chloro-2-(4-(2-((S)-1-(dimethylamino)ethyl)-1-methyl-1H-imidazol-5-yl)phenoxy)benzyl)-4-(4-chlorobenzyl)-7-(methoxymethyl)-5,10,16-trimethylhexadecahydrobenzo[l][1,4,7,11,14]pentaazacyclooctadecine-2,6,9,12,15(3H)-pentaone], the Max % inhibition amounted to 72.66% and the IC50 was 247 nM.
For `COC[C@@H]1NC(=O)[C@H](C)N(Cc2ccc(Cl)cc2Oc2ccc(-c3cnc(C(C)O)n3C)cc2)C(=O)C[C@@H](Cc2ccccc2)C(=O)N(C)[C@H]2CCCC[C@@H]2NC(=O)C[C@H](Cc2ccc(Cl)cc2)N(C)C1=O` (stereo partly drawn) [Compound 242, (4S,7S,10S,14R,16aS,20aS)-14-benzyl-11-(4-chloro-2-(4-(2-(1-hydroxyethyl)-1-methyl-1H-imidazol-5-yl)phenoxy)benzyl)-4-(4-chlorobenzyl)-7-(methoxymethyl)-5,10,16-trimethylhexadecahydrobenzo[l][1,4,7,11,14]pentaazacyclooctadecine-2,6,9,12,15(3H)-pentaone], the Max % inhibition came to 87.34% and the IC50 is 1.3 nM.
Regarding `C[C@H]1C(=O)N[C@@H](CO)C(=O)N(C)[C@@H](Cc2ccc(Cl)cc2)CC(=O)N[C@H]2CCCC[C@@H]2N(C)C(=O)[C@H](Cc2ccccc2)CC(=O)N1Cc1ccc(Cl)cc1Oc1ccc(-c2cnc(CN(C)C)n2C)cc1` [Compound 243, (4S,7S,10S,14R,16aS,20aS)-14-benzyl-11-(4-chloro-2-(4-(2-((dimethylamino)methyl)-1-methyl-1H-imidazol-5-yl)phenoxy)benzyl)-4-(4-chlorobenzyl)-7-(hydroxymethyl)-5,10,16-trimethylhexadecahydrobenzo[l][1,4,7,11,14]pentaazacyclooctadecine-2,6,9,12,15(3H)-pentaone], the Max % inhibition is given as 97.38% and the IC50 worked out at 0.9 nM.
The matching figures for `CCNC(=O)c1ncn(-c2ccc(Oc3cc(Cl)ccc3CN3C(=O)C[C@@H](Cc4ccccc4)C(=O)N(C)[C@@H](C)CNC(=O)C[C@H](Cc4ccc(Cl)cc4)N(C)C(=O)[C@H](COC)NC(=O)[C@@H]3C)cc2)c1C` [Compound 244, 1-(4-(2-(((2S,5S,8S,13S,16R)-16-benzyl-8-(4-chlorobenzyl)-5-(methoxymethyl)-2,7,13,14-tetramethyl-3,6,10,15,18-pentaoxo-1,4,7,11,14-pentaazacyclooctadecan-1-yl)methyl)-5-chlorophenoxy)phenyl)-N-ethyl-5-methyl-1H-imidazole-4-carboxamide]: 80.79% and 22.9 nM.
With `COC[C@@H]1NC(=O)[C@H](CCC(=O)O)N(Cc2ccc(Cl)cc2Oc2ccc(-c3cnc(CN(C)C)n3C)cc2)C(=O)C[C@@H](Cc2ccccc2)C(=O)N(C)[C@H]2CCCC[C@@H]2NC(=O)C[C@H](Cc2ccc(Cl)cc2)N(C)C1=O` [Compound 245, 3-((4S,7S,10S,14R,16aS,20aS)-14-benzyl-11-(4-chloro-2-(4-(2-((dimethylamino)methyl)-1-methyl-1H-imidazol-5-yl)phenoxy)benzyl)-4-(4-chlorobenzyl)-7-(methoxymethyl)-5,16-dimethyl-2,6,9,12,15-pentaoxodocosahydrobenzo[l][1,4,7,11,14]pentaazacyclooctadecin-10-yl)propanoic acid], the Max % inhibition was found to be 104.03% and the IC50 is 1.3 nM.
